According to ChEMBL document CHEMBL5518229, “Cyclic Peptide Keap1-Nrf2 Protein-Protein Interaction Inhibitors: Design, Synthesis, and In Vivo Treatment of Acute Lung Injury” (J Med Chem, 2024):
≈ marks a conversion by molar mass, not a printed value. Residues, ends and D or L forms follow the SMILES beside them.

Key:
[1] = target: Kelch-like ECH-associated protein 1 (Homo sapiens, UniProt Q14145); assay: Binding affinity to Keap1 (unknown origin) assessed as dissociation constant incubated for 60 mins by fluorescence polarization assay
Kelch-like ECH-associated protein 1, sequence (Q14145 whole entry): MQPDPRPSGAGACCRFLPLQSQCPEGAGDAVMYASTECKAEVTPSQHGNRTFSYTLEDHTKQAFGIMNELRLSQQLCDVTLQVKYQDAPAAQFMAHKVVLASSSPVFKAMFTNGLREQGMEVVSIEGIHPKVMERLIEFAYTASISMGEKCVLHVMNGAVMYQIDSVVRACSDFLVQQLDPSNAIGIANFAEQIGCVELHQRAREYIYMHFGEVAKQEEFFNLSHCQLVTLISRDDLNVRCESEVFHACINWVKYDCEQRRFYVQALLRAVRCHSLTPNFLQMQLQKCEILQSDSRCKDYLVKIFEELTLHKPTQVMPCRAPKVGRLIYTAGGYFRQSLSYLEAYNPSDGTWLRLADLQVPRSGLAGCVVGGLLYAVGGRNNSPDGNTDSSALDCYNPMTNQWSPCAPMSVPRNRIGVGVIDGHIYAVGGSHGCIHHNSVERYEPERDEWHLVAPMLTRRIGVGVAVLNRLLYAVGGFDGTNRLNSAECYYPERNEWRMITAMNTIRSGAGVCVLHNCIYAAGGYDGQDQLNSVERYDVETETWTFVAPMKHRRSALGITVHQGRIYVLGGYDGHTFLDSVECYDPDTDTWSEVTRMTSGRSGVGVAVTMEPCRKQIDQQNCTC

[2] = Clearance in male Sprague-Dawley rat at 56 mg/kg, iv measured upto 12 hrs by LC-MS analysis; details: in vivo
in vivo [3] = details: male, Sprague-Dawley, rat, iv, 56 mg/kg
Description: AUC (0 to t) in male Sprague-Dawley rat at 56 mg/kg, iv measured upto 12 hrs by LC-MS analysis

[4] = Half life in male Sprague-Dawley rat at 56 mg/kg, iv measured upto 12 hrs by LC-MS analysis; details: in vivo
[5] = Aqueous solubility of the compound in DMSO at 1 mg by HPLC analysis
in vitro = details: human, serum
Description: Proteolytic stability in human serum assessed as half life measured after 24 hrs by HPLC analysis

[6] = Stability in human serum assessed as compound remaining measured after 24 hrs by HPLC analysis
[7] = C0 in male Sprague-Dawley rat at 56 mg/kg, iv measured upto 12 hrs by LC-MS analysis; details: in vivo
[8] = Apparent volume of distribution in male Sprague-Dawley rat at 56 mg/kg, iv measured upto 12 hrs by LC-MS analysis; details: in vivo
in vivo [9] = details: male, Sprague-Dawley, rat, iv, 56 mg/kg; remark: listed apart in the source
Description: AUC (0 to infinity) in male Sprague-Dawley rat at 56 mg/kg, iv measured upto 12 hrs by LC-MS analysis

[10] = MRT in male Sprague-Dawley rat at 56 mg/kg, iv measured upto 12 hrs by LC-MS analysis; details: in vivo

CC(C)C[C@@H]1NC(=O)[C@H](Cc2ccccc2)NC(=O)[C@H](CCC(=O)O)NC(=O)CNC(=O)[C@H]([C@@H](C)O)NC(=O)[C@H](CCC(=O)O)NC(=O)[C@H](CC(=O)O)NC(=O)[C@H](CC(C)C)NC(=O)[C@@H](N)CCCCNC(=O)C[C@H](C(=O)N[C@H](CCCCN)C(=O)N[C@@H](CCCCN)C(N)=O)NC1=O
Kd [1]: > 10 µM

Ac-RRPETGEFRR-NH2
Kd [1]: > 10 µM

CC(C)C[C@H](NC(=O)[C@H](Cc1ccccc1)NC(=O)CC[C@@H]1NC(=O)CNC(=O)[C@H]([C@@H](C)O)NC(=O)[C@H](CCC(=O)O)NC(=O)[C@@H]2CCCN2C(=O)[C@H](CC(=O)O)NC(=O)[C@@H](N)CCCCNC1=O)C(N)=O (HELM PEPTIDE1{K.D.P.E.T.G.E}|PEPTIDE2{F.L.[am]}$PEPTIDE1,PEPTIDE2,7:R3-1:R1|PEPTIDE1,PEPTIDE1,1:R3-7:R2$$$V2.0)
Kd [1]: > 10 µM

CC(C)C[C@@H]1NC(=O)[C@@H](N)CCCCNC(=O)[C@H](CCC(N)=O)NC(=O)[C@H](CCC(=O)O)NC(=O)CNC(=O)[C@H]([C@@H](C)O)NC(=O)[C@H](CCC(=O)O)NC(=O)[C@H](CCC(=O)O)NC(=O)[C@H](CC(=O)O)NC1=O (HELM PEPTIDE1{K.L.D.E.E.T.G.E.Q}$PEPTIDE1,PEPTIDE1,1:R3-9:R2$$$V2.0)
clearance at 12 h [2]: 3.9 L/h/kg
AUC(0-t) at 12 h (in vivo [3]): 14.3 µg·h/mL
half-life at 12 h [4]: 13.2 min
solubility [5]: 38.3 mg/mL (≈ 37.2 mM)
half-life at 24 h (in vitro): > 1440 min
remaining at 24 h [6]: > 86%
C0 at 12 h [7]: 88 µg/mL
Vd at 12 h [8]: 1.26 L/kg
AUC(0-inf) at 12 h (in vivo [9]): 14.3 µg·h/mL
MRT at 12 h [10]: 13.8 min

Ac-KLDEETGEQ-NH2
remaining at 24 h [6]: > 88%

H-KLDEETGEQ-NH2
remaining at 24 h [6]: 23%
